Reference: ChEMBL document CHEMBL5113538, “Discovery of Novel Allosteric EGFR L858R Inhibitors for the Treatment of Non-Small-Cell Lung Cancer as a Single Agent or in Combination with Osimertinib” (J Med Chem, 2022)

The compounds below were run against Epidermal growth factor receptor (Homo sapiens, UniProt P00533, C797S/L858R). Conditions: not given.
Sequence of Epidermal growth factor receptor (Homo sapiens, UniProt P00533, C797S/L858R) (P00533 25-1210 C797S/L858R limits assumed): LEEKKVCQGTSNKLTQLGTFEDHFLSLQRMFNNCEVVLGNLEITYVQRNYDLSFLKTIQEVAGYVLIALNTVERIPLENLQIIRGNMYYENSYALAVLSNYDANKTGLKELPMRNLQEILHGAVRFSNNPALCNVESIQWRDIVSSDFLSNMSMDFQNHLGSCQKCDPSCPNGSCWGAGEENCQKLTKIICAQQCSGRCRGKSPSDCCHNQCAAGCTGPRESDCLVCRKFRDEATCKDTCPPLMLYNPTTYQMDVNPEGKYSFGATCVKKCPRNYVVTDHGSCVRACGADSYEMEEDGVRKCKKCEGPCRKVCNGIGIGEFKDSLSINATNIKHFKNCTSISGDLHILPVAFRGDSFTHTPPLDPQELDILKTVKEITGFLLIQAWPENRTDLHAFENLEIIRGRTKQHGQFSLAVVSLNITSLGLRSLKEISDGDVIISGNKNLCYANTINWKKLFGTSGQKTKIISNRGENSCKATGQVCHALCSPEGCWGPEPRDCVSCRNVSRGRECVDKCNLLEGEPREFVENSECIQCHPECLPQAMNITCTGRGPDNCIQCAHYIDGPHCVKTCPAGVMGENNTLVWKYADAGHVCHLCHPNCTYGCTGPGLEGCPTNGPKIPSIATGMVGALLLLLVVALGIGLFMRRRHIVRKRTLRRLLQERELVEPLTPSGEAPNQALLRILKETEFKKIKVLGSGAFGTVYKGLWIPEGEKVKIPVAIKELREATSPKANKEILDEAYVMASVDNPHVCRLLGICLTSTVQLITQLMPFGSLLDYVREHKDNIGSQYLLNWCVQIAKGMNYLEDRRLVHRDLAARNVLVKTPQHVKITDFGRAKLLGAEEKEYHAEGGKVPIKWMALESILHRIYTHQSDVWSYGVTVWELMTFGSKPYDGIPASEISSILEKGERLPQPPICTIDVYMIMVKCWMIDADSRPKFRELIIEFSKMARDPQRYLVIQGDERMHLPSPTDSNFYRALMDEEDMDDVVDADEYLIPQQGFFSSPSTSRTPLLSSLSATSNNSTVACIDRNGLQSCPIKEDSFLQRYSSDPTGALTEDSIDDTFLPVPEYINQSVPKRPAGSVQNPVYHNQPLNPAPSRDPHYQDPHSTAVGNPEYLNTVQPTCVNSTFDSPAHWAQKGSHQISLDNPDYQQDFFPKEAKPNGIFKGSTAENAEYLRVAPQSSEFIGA

Row | SMILES | IC50 [nM]
1 | O=C(Nc1nccs1)C(c1ncn2c1CCC2)n1cc2c(Cl)cc(-c3ccc(N4CCOCC4)cc3)c(Cl)c2n1 (stereo not drawn) | 33
2 | O=C(Nc1nccs1)C(c1ncn2c1C[C@@H](F)C2)n1cc2c(Cl)cc(-c3ccc(N4CCN(C5CC5)CC4)cc3)c(Cl)c2n1 (mixture of isomers) | 30
3 | O=C(Nc1nccs1)C(c1ncn2c1CCC2)N1Cc2ccc(C#Cc3cccnc3)cc2C1=O (stereo not drawn) | > 10000
4 | O=C(Nc1nccs1)C(c1ncn2c1CCC2)n1cc2c(F)cc(C#Cc3ccc(CN4CCC(O)CC4)cc3)cc2n1 (stereo not drawn) | 106
5 | Cc1[nH]nc(C(C(=O)Nc2nccs2)N2Cc3ccccc3C2=O)c1C (stereo not drawn) | > 10000
6 | O=C(Nc1nccs1)C(c1ncn2c1CCC2)N1Cc2c(F)cc(C#Cc3ccc(CN4CCCCC4)cc3)cc2C1=O (stereo not drawn) | 54
7 | O=C(Nc1nccs1)C(c1ncn2c1C[C@@H](F)C2)n1cc2c(Cl)cc(-c3ccc(N4CCOCC4)cc3)c(Cl)c2n1 (mixture of isomers) | 17
8 | O=C(Nc1nccs1)C(c1ncn2c1CCC2)N1Cc2c(F)cc(C#Cc3cccnc3)cc2C1=O (stereo not drawn) | 129
9 | O=C(Nc1nccs1)C(c1cc[nH]n1)N1Cc2ccccc2C1=O (stereo not drawn) | > 10000
10 | CCN1CCN(c2ccc(-c3cc(Cl)c4cn(C(C(=O)Nc5nccs5)c5ncn6c5CCC6)nc4c3Cl)cc2)CC1 (stereo not drawn) | 22
11 | O=C(Nc1nccs1)C(c1n[nH]c2c1CCC2)N1Cc2ccccc2C1=O (stereo not drawn) | 3200

These compounds were tested against Epidermal growth factor receptor (Homo sapiens, UniProt P00533, C797S/L858R/T790M). Conditions: not given.
Sequence of Epidermal growth factor receptor (Homo sapiens, UniProt P00533, C797S/L858R/T790M) (P00533 25-1210 T790M/C797S/L858R limits assumed): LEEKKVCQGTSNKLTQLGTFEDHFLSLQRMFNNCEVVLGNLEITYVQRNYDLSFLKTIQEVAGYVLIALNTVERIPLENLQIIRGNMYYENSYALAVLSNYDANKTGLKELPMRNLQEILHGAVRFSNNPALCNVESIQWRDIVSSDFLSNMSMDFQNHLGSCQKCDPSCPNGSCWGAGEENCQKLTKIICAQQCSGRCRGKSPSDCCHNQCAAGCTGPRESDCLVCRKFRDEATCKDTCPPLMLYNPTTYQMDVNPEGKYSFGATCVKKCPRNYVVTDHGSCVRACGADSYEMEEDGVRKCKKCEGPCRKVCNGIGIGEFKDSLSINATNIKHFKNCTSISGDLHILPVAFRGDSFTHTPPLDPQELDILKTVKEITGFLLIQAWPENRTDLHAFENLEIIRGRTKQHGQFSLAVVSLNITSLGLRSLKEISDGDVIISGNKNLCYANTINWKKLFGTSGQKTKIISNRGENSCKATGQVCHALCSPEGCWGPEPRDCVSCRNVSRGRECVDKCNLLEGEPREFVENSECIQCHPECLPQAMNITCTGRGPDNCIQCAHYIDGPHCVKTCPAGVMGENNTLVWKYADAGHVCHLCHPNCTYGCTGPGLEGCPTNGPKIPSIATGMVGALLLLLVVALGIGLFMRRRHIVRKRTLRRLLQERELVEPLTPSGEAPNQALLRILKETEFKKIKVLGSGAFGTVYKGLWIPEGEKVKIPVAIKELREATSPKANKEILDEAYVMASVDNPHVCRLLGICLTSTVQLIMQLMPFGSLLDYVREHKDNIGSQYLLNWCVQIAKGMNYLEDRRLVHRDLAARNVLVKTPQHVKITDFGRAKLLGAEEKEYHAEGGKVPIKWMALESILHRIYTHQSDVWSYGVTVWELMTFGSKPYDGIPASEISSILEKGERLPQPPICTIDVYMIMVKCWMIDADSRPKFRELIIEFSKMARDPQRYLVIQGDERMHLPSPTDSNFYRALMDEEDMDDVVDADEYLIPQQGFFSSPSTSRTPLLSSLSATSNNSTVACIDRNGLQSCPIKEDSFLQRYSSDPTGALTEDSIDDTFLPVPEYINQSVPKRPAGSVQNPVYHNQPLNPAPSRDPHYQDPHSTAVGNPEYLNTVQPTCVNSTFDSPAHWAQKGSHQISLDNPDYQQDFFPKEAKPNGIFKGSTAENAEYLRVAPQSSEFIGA

Row | SMILES | IC50 [nM]
12 | Cc1c(C#Cc2ccc(CN3CCC(CO)CC3)cc2)cc(C(F)F)c2cn(C(C(=O)Nc3nccs3)c3ncn4c3CCC4)nc12 (stereo not drawn) | 3
13 | Cc1c(-c2ccc(N3CCOCC3)cc2)cc(C(F)F)c2cn(C(C(=O)Nc3nccs3)c3ncn4c3C[C@@H](F)C4)nc12 (mixture of isomers) | 7
14 | O=C(Nc1nccs1)C(c1ncn2c1C[C@@H](F)C2)n1cc2c(Cl)cc(-c3ccc(N4CCN(C5CC5)CC4)cc3)c(Cl)c2n1 (mixture of isomers) | 17
15 | O=C(Nc1nccs1)C(c1ncn2c1CCC2)N1Cc2ccc(C#Cc3cccnc3)cc2C1=O (stereo not drawn) | 460
16 | O=C(Nc1nccs1)C(c1ncn2c1CCC2)n1cc2c(F)cc(C#Cc3ccc(CN4CCC(O)CC4)cc3)cc2n1 (stereo not drawn) | 6
17 | Cc1[nH]nc(C(C(=O)Nc2nccs2)N2Cc3ccccc3C2=O)c1C (stereo not drawn) | > 10000
18 | O=C(Nc1nccs1)C(c1ncn2c1CCC2)N1Cc2c(F)cc(C#Cc3ccc(CN4CCCCC4)cc3)cc2C1=O (stereo not drawn) | 7
19 | O=C(Nc1nccs1)C(c1ncn2c1C[C@@H](F)C2)n1cc2c(Cl)cc(-c3ccc(N4CCOCC4)cc3)c(Cl)c2n1 (mixture of isomers) | 6
20 | O=C(Nc1nccs1)C(c1ncn2c1CCC2)N1Cc2c(F)cc(C#Cc3cccnc3)cc2C1=O (stereo not drawn) | 7
21 | O=C(Nc1nccs1)C(c1cc[nH]n1)N1Cc2ccccc2C1=O (stereo not drawn) | 938
22 | O=C(Nc1nccs1)C(c1n[nH]c2c1CCC2)N1Cc2ccccc2C1=O (stereo not drawn) | 23

The compounds below were run on BaF3 (assay: Cytotoxicity against mouse BaF3 cells expressing EGFR L858R/T790M/C797S mutant assessed as reduction in cell viability measured after 72 hrs by cell titre glo luminescence assay). Conditions: BaF3, 72 h.
Assay type: functional, cell-based

Row | SMILES | IC50 [nM]
23 | Cc1c(C#Cc2ccc(CN3CCC(CO)CC3)cc2)cc(C(F)F)c2cn(C(C(=O)Nc3nccs3)c3ncn4c3CCC4)nc12 (stereo not drawn) | 1
24 | O=C(Nc1nccs1)C(c1ncn2c1CCC2)n1cc2c(Cl)cc(-c3ccc(N4CCOCC4)cc3)c(Cl)c2n1 (stereo not drawn) | 31
25 | O=C(Nc1nccs1)C(c1ncn2c1C[C@@H](F)C2)n1cc2c(Cl)cc(-c3ccc(N4CCN(C5CC5)CC4)cc3)c(Cl)c2n1 (mixture of isomers) | 23
26 | O=C(Nc1nccs1)C(c1ncn2c1CCC2)N1Cc2ccc(C#Cc3cccnc3)cc2C1=O (stereo not drawn) | 1200
27 | O=C(Nc1nccs1)C(c1ncn2c1CCC2)n1cc2c(F)cc(C#Cc3ccc(CN4CCC(O)CC4)cc3)cc2n1 (stereo not drawn) | 9
28 | O=C(Nc1nccs1)C(c1cc(F)ccc1O)N1Cc2ccc(-c3ccc(N4CCNCC4)cc3)cc2C1=O (stereo not drawn) | 30
29 | O=C(Nc1nccs1)C(c1ncn2c1CCC2)N1Cc2c(F)cc(C#Cc3ccc(CN4CCCCC4)cc3)cc2C1=O (stereo not drawn) | 10
30 | O=C(Nc1nccs1)C(c1ncn2c1CCC2)N1Cc2c(F)cc(C#Cc3cccnc3)cc2C1=O (stereo not drawn) | 12
31 | CCN1CCN(c2ccc(-c3cc(Cl)c4cn(C(C(=O)Nc5nccs5)c5ncn6c5CCC6)nc4c3Cl)cc2)CC1 (stereo not drawn) | 13

Same assay, conditions: BaF3, time 72 hrs

Row | SMILES | IC90 [nM]
32 | O=C(Nc1nccs1)C(c1ncn2c1CCC2)n1cc2c(Cl)cc(-c3ccc(N4CCOCC4)cc3)c(Cl)c2n1 (stereo not drawn) | 74
33 | O=C(Nc1nccs1)C(c1ncn2c1C[C@@H](F)C2)n1cc2c(Cl)cc(-c3ccc(N4CCN(C5CC5)CC4)cc3)c(Cl)c2n1 (mixture of isomers) | 55
34 | O=C(Nc1nccs1)C(c1ncn2c1CCC2)N1Cc2ccc(C#Cc3cccnc3)cc2C1=O (stereo not drawn) | 3000
35 | O=C(Nc1nccs1)C(c1cc(F)ccc1O)N1Cc2ccc(-c3ccc(N4CCNCC4)cc3)cc2C1=O (stereo not drawn) | 40
36 | O=C(Nc1nccs1)C(c1ncn2c1CCC2)N1Cc2c(F)cc(C#Cc3ccc(CN4CCCCC4)cc3)cc2C1=O (stereo not drawn) | 24
37 | O=C(Nc1nccs1)C(c1ncn2c1CCC2)N1Cc2c(F)cc(C#Cc3cccnc3)cc2C1=O (stereo not drawn) | 30
38 | CCN1CCN(c2ccc(-c3cc(Cl)c4cn(C(C(=O)Nc5nccs5)c5ncn6c5CCC6)nc4c3Cl)cc2)CC1 (stereo not drawn) | 33

These compounds were tested on BaF3 (assay: Cytotoxicity against mouse BaF3 cells harboring EGFR L858R/C797S mutant assessed as reduction in cell viability measured after 72 hrs by cell titre glo luminescence assay). Conditions: BaF3, 72 h.
Assay type: functional, cell-based

Row | SMILES | IC50 [nM]
39 | Cc1c(C#Cc2ccc(CN3CCC(CO)CC3)cc2)cc(C(F)F)c2cn(C(C(=O)Nc3nccs3)c3ncn4c3CCC4)nc12 (stereo not drawn) | 2
40 | O=C(Nc1nccs1)C(c1ncn2c1CCC2)N1Cc2ccc(C#Cc3ccccc3)cc2C1=O (stereo not drawn) | > 10000
41 | Cc1c(-c2ccc(N3CCOCC3)cc2)cc(C(F)F)c2cn(C(C(=O)Nc3nccs3)c3ncn4c3C[C@@H](F)C4)nc12 (mixture of isomers) | 4
42 | O=C(Nc1nccs1)C(c1ncn2c1CCC2)n1cc2c(Cl)cc(-c3ccc(N4CCOCC4)cc3)c(Cl)c2n1 (stereo not drawn) | 46
43 | O=C(Nc1nccs1)C(c1ncn2c1C[C@@H](F)C2)n1cc2c(Cl)cc(-c3ccc(N4CCN(C5CC5)CC4)cc3)c(Cl)c2n1 (mixture of isomers) | 36
44 | O=C(Nc1nccs1)C(c1ncn2c1CCC2)N1Cc2ccc(C#Cc3cccnc3)cc2C1=O (stereo not drawn) | > 10000
45 | O=C(Nc1nccs1)C(c1ncn2c1CCC2)n1cc2c(F)cc(C#Cc3ccc(CN4CCC(O)CC4)cc3)cc2n1 (stereo not drawn) | 800
46 | O=C(Nc1nccs1)C(c1cc(F)ccc1O)N1Cc2ccc(-c3ccc(N4CCNCC4)cc3)cc2C1=O (stereo not drawn) | 1550
47 | O=C(Nc1nccs1)C(c1ncn2c1CCC2)N1Cc2c(F)cc(C#Cc3ccc(CN4CCCCC4)cc3)cc2C1=O (stereo not drawn) | 207
48 | O=C(Nc1nccs1)C(c1ncn2c1C[C@@H](F)C2)n1cc2c(Cl)cc(-c3ccc(N4CCOCC4)cc3)c(Cl)c2n1 (mixture of isomers) | 12
49 | O=C(Nc1nccs1)C(c1ncn2c1CCC2)N1Cc2c(F)cc(C#Cc3cccnc3)cc2C1=O (stereo not drawn) | 1800
50 | CCN1CCN(c2ccc(-c3cc(Cl)c4cn(C(C(=O)Nc5nccs5)c5ncn6c5CCC6)nc4c3Cl)cc2)CC1 (stereo not drawn) | 26

Same assay, conditions: BaF3, time 72 hrs

Row | SMILES | IC90 [nM]
51 | O=C(Nc1nccs1)C(c1ncn2c1CCC2)N1Cc2ccc(C#Cc3ccccc3)cc2C1=O (stereo not drawn) | > 10000
52 | O=C(Nc1nccs1)C(c1ncn2c1CCC2)n1cc2c(Cl)cc(-c3ccc(N4CCOCC4)cc3)c(Cl)c2n1 (stereo not drawn) | 126
53 | O=C(Nc1nccs1)C(c1ncn2c1C[C@@H](F)C2)n1cc2c(Cl)cc(-c3ccc(N4CCN(C5CC5)CC4)cc3)c(Cl)c2n1 (mixture of isomers) | 104
54 | O=C(Nc1nccs1)C(c1ncn2c1CCC2)N1Cc2ccc(C#Cc3cccnc3)cc2C1=O (stereo not drawn) | > 10000
55 | O=C(Nc1nccs1)C(c1cc(F)ccc1O)N1Cc2ccc(-c3ccc(N4CCNCC4)cc3)cc2C1=O (stereo not drawn) | 7280
56 | O=C(Nc1nccs1)C(c1ncn2c1CCC2)N1Cc2c(F)cc(C#Cc3ccc(CN4CCCCC4)cc3)cc2C1=O (stereo not drawn) | 711
57 | O=C(Nc1nccs1)C(c1ncn2c1CCC2)N1Cc2c(F)cc(C#Cc3cccnc3)cc2C1=O (stereo not drawn) | 7000
58 | CCN1CCN(c2ccc(-c3cc(Cl)c4cn(C(C(=O)Nc5nccs5)c5ncn6c5CCC6)nc4c3Cl)cc2)CC1 (stereo not drawn) | 70
